Measured values published in ChEMBL document CHEMBL3991601, “The target landscape of clinical kinase drugs” (Science, 2017).
Active and inactive are the calls of the source. For most assays here, no stated cut-off is given here; in the data, actives have a measured Kd and inactives only a lower limit.

Experiments:
Deoxycytidine kinase = Deoxycytidine kinase (Homo sapiens, UniProt P27707)
[1] = target: T1, Dual specificity mitogen-activated protein kinase kinase 3 (Homo sapiens, UniProt P46734)
T1 sequence (P46734 whole entry): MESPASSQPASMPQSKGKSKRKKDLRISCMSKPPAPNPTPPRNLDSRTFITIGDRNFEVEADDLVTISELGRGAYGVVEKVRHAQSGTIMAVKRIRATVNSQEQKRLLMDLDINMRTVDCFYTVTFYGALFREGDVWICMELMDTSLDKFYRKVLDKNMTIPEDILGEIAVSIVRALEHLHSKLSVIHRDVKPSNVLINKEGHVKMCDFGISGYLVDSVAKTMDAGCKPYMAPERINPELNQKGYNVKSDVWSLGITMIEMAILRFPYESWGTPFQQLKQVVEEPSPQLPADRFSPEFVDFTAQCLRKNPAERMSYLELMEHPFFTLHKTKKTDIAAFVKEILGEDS

[2] = target: T2, General transcription and DNA repair factor IIH helicase subunit XPD (Homo sapiens, UniProt P18074); conditions: read-out: Kd apparent; k-562, colo 205, sk-n-be(2) and mv-4-11
T2 sequence (P18074 whole entry): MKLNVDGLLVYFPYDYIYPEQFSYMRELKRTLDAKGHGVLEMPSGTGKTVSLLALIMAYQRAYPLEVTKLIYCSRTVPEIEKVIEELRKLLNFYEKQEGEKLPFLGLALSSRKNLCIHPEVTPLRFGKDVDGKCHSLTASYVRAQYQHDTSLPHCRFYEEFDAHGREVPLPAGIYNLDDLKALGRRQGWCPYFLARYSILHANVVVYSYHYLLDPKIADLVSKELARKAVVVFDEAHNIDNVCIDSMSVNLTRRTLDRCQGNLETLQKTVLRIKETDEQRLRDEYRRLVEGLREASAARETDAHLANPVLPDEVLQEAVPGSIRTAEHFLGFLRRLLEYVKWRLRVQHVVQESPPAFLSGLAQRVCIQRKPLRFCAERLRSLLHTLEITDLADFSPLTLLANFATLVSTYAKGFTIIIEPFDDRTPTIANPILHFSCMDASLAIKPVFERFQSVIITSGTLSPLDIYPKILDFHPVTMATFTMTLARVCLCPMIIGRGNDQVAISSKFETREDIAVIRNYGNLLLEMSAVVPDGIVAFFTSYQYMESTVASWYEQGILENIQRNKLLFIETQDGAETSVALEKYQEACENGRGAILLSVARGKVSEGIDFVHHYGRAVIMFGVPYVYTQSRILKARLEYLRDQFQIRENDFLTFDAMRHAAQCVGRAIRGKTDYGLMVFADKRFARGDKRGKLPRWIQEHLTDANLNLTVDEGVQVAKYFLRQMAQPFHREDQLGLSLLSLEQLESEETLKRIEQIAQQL

[3] = target: Glycogen synthase kinase-3 alpha (Homo sapiens, UniProt P49840)
TGF-beta receptor type-2 = TGF-beta receptor type-2 (Homo sapiens, UniProt P37173)
[4] = target: Mitogen-activated protein kinase kinase kinase 20 (Homo sapiens, UniProt Q9NYL2)
Aurora kinase A = target: T3, Aurora kinase A (Homo sapiens, UniProt O14965)
T3 sequence (O14965 whole entry): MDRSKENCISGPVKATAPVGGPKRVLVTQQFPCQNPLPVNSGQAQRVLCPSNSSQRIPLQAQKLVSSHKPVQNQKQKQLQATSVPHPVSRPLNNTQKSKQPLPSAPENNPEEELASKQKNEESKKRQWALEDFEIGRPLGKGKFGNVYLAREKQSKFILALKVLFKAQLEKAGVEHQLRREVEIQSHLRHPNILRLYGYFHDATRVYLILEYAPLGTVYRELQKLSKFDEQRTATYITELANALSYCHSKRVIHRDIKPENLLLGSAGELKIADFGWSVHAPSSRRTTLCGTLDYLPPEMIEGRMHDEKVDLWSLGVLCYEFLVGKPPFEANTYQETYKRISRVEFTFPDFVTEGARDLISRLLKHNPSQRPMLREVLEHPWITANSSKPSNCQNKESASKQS

[5] = target: Serine/threonine-protein kinase SIK3 (Homo sapiens, UniProt Q9Y2K2)
[6] = target: Platelet-derived growth factor receptor beta (Homo sapiens, UniProt P09619)
[7] = target: T4, AarF domain-containing protein kinase 1 (Homo sapiens, UniProt Q86TW2)
T4 sequence (Q86TW2 whole entry): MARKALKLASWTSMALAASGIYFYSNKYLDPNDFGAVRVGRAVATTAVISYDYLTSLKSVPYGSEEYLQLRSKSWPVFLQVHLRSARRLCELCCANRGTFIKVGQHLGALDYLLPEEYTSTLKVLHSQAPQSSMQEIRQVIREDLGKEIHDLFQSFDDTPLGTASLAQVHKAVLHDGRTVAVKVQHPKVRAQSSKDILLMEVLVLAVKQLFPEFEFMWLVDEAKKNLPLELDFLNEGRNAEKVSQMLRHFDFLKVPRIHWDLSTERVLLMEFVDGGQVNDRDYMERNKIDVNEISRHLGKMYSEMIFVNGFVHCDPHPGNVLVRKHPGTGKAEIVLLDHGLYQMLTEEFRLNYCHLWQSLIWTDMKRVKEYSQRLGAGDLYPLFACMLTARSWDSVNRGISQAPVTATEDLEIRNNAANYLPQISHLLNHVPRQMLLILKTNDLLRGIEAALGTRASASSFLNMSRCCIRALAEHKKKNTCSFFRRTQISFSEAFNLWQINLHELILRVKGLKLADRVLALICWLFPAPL

[8] = target: Epithelial discoidin domain-containing receptor 1 (Homo sapiens, UniProt Q08345)
[9] = target: Tyrosine-protein kinase ABL2 (Homo sapiens, UniProt P42684)
[10] = target: Tyrosine-protein kinase Yes (Homo sapiens, UniProt P07947)
[11] = target: Dual specificity mitogen-activated protein kinase kinase 1 (Homo sapiens, UniProt Q02750)
Sequence of Dual specificity mitogen-activated protein kinase kinase 1 (Q02750 whole entry): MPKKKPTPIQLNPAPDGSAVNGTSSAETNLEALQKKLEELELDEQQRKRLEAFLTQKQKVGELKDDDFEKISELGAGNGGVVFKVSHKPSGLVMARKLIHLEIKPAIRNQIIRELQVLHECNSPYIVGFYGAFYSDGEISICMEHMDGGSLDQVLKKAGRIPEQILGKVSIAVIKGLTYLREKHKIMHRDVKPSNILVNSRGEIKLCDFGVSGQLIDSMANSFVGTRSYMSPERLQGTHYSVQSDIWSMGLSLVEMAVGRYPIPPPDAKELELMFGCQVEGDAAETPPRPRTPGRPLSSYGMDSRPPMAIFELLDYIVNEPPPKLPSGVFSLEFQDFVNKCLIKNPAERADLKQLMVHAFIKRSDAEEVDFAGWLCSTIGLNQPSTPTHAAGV

Sequence of TGF-beta receptor type-2 (P37173 whole entry): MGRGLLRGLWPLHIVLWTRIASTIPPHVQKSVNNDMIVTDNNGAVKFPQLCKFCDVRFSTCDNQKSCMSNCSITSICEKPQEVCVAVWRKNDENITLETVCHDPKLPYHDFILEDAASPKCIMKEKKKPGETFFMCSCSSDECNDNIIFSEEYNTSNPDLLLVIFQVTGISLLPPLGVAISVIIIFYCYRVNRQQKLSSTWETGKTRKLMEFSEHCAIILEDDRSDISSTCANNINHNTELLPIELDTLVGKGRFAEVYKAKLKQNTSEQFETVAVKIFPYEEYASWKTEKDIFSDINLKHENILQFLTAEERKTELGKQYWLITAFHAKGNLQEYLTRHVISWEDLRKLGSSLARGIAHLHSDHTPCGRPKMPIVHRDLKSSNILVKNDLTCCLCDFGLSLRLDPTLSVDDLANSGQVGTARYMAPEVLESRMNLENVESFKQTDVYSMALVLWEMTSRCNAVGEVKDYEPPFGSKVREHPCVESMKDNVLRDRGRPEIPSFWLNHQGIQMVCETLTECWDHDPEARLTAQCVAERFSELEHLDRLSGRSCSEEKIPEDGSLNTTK
Sequence of Deoxycytidine kinase (P27707 whole entry): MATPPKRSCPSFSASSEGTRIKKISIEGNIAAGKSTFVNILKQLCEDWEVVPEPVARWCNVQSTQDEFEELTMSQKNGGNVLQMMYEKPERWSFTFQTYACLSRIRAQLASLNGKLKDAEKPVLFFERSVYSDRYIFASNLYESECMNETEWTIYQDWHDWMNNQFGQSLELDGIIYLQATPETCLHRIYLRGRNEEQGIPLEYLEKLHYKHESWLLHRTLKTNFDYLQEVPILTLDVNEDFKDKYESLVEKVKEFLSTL
Sequence of Tyrosine-protein kinase Yes (P07947 whole entry): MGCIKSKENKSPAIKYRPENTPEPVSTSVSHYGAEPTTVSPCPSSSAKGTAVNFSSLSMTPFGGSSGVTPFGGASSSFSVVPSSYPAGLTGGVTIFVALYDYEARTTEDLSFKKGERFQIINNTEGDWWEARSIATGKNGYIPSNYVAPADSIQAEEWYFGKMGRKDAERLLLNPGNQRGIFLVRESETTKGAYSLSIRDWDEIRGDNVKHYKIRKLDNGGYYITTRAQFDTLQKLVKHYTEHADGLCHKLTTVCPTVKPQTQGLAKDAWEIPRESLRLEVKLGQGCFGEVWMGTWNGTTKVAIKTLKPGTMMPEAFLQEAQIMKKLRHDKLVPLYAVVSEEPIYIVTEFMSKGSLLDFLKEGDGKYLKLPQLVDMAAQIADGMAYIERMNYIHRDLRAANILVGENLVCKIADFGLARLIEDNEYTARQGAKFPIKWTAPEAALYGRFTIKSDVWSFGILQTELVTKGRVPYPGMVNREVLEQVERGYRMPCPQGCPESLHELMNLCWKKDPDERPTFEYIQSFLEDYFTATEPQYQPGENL
Sequence of Mitogen-activated protein kinase kinase kinase 20 (Q9NYL2 whole entry): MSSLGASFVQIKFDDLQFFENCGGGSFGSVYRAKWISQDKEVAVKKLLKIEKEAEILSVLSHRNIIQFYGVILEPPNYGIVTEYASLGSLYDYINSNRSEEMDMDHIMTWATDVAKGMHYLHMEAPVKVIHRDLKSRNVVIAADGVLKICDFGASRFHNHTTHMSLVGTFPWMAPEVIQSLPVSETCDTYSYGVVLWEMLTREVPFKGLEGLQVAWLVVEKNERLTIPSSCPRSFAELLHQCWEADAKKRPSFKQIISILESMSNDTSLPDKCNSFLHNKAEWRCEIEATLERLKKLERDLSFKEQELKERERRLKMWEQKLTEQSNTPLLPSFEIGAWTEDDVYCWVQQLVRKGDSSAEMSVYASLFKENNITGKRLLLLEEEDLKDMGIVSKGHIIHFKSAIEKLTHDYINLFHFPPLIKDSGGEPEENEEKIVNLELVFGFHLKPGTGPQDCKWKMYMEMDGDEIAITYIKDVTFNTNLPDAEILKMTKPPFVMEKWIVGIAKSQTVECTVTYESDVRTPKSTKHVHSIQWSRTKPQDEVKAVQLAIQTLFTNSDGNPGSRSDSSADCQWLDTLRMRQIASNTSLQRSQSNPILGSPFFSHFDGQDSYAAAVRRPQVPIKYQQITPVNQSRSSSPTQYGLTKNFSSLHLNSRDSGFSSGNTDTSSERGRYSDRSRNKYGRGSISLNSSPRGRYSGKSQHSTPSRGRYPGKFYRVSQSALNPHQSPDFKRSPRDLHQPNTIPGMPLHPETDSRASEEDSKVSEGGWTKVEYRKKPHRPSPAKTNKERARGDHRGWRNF
Sequence of Glycogen synthase kinase-3 alpha (P49840 whole entry): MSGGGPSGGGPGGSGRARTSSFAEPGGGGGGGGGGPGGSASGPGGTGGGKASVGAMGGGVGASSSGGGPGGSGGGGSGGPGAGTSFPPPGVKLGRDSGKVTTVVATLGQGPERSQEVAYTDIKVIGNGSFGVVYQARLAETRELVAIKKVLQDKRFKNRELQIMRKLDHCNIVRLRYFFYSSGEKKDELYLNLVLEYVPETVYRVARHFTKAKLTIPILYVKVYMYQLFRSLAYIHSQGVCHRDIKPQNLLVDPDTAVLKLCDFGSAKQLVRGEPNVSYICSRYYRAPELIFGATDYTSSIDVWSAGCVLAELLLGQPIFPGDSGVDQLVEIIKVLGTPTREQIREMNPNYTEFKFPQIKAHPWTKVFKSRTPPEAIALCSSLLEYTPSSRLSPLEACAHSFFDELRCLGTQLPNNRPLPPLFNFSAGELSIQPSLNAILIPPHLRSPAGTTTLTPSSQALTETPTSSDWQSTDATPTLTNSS
Sequence of Epithelial discoidin domain-containing receptor 1 (Q08345 whole entry, the tested form may be a part): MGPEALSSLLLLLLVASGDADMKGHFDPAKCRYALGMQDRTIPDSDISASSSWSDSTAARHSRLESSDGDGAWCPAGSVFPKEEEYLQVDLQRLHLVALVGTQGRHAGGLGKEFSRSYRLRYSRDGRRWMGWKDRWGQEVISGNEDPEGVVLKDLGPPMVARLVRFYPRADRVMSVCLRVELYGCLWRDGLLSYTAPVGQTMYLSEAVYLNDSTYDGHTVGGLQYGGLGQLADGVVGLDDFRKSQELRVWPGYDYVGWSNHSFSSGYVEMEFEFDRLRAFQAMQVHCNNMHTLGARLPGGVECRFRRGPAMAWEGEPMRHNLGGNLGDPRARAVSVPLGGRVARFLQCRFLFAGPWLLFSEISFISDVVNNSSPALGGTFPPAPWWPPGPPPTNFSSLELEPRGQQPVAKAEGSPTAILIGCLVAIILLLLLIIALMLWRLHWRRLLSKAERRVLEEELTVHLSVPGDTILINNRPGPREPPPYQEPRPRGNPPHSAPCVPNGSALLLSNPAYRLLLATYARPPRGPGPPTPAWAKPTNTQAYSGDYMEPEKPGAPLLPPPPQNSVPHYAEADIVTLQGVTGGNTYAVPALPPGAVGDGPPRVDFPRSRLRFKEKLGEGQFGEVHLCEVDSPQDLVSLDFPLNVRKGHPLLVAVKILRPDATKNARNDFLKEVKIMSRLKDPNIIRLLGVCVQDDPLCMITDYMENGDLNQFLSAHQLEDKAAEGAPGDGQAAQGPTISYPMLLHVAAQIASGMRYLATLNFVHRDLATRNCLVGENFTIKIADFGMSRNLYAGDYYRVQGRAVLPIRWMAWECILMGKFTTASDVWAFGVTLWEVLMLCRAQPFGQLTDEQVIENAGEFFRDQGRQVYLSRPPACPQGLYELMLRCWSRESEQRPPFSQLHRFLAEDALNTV

| Kd (Deoxycytidine kinase) | Kd [1] | Kd [2] | Kd [3] | Kd (TGF-beta receptor type-2) | Kd [4] | Kd (Aurora kinase A) | Kd [5] | Kd [6] | Kd [7] | Kd [8] | Kd [9] | Kd [10] | Kd [11] | SMILES |
| --- | --- | --- | --- | --- | --- | --- | --- | --- | --- | --- | --- | --- | --- | --- |
| > 30 µM (inactive) | > 30 µM (inactive) | > 30 µM (inactive) | > 30 µM (inactive) | > 30 µM (inactive) | > 30 µM (inactive) | > 30 µM (inactive) | > 30 µM (inactive) | > 30 µM (inactive) | > 30 µM (inactive) | > 30 µM (inactive) | > 30 µM (inactive) | > 30 µM (inactive) | > 30 µM (inactive) | CO[C@H]1C[C@@H]2CC[C@@H](C)[C@@](O)(O2)C(=O)C(=O)N2CCCC[C@H]2C(=O)O[C@H]([C@H](C)C[C@@H]2CC[C@@H](O)[C@H](OC)C2)CC(=O)[C@H](C)/C=C(\C)[C@@H](O)[C@@H](OC)C(=O)[C@H](C)C[C@H](C)/C=C/C=C/C=C/1C [SIROLIMUS] |
| > 30 µM (inactive) | > 30 µM (inactive) | > 30 µM (inactive) | > 30 µM (inactive) | > 30 µM (inactive) | > 30 µM (inactive) | > 30 µM (inactive) | > 30 µM (inactive) | > 30 µM (inactive) | > 30 µM (inactive) | > 30 µM (inactive) | > 30 µM (inactive) | > 30 µM (inactive) | > 30 µM (inactive) | CO[C@H]1C[C@@H]2CC[C@@H](C)[C@@](O)(O2)C(=O)C(=O)N2CCCC[C@H]2C(=O)O[C@H]([C@H](C)C[C@@H]2CC[C@@H](OC(=O)C(C)(CO)CO)[C@H](OC)C2)CC(=O)[C@H](C)/C=C(\C)[C@@H](O)[C@@H](OC)C(=O)[C@H](C)C[C@H](C)/C=C/C=C/C=C/1C [TEMSIROLIMUS] |
| > 30 µM (inactive) | > 30 µM (inactive) | > 30 µM (inactive) | > 30 µM (inactive) | > 30 µM (inactive) | > 30 µM (inactive) | > 30 µM (inactive) | > 30 µM (inactive) | > 30 µM (inactive) | > 30 µM (inactive) | 0.073 µM (active) | 0.628 µM (active) | 3.94 µM (active) | > 30 µM (inactive) | COc1cc2c(Nc3ccc(Cl)c(Cl)c3F)ncnc2cc1OC[C@@H]1C[C@@H]2CN(C)C[C@@H]2C1 [TESEVATINIB] |
| > 30 µM (inactive) | > 30 µM (inactive) | > 30 µM (inactive) | > 30 µM (inactive) | > 30 µM (inactive) | > 30 µM (inactive) | > 30 µM (inactive) | > 30 µM (inactive) | > 30 µM (inactive) | > 30 µM (inactive) | > 30 µM (inactive) | > 30 µM (inactive) | > 30 µM (inactive) | > 30 µM (inactive) | O=C(Cc1ccc(-c2ccc(OCCN3CCOCC3)cc2)cn1)NCc1ccccc1 [TIRBANIBULIN] |
| > 30 µM (inactive) | > 30 µM (inactive) | > 30 µM (inactive) | > 30 µM (inactive) | > 30 µM (inactive) | > 30 µM (inactive) | > 30 µM (inactive) | > 30 µM (inactive) | > 30 µM (inactive) | > 30 µM (inactive) | > 30 µM (inactive) | > 30 µM (inactive) | > 30 µM (inactive) | > 30 µM (inactive) | O=C1NC(=O)[C@@H](c2cn3c4c(cccc24)CCC3)[C@@H]1c1c[nH]c2ccccc12 [TIVANTINIB] |
| > 30 µM (inactive) | > 30 µM (inactive) | > 30 µM (inactive) | > 30 µM (inactive) | 1.64 µM | 0.45 µM (active) | > 30 µM (inactive) | > 30 µM (inactive) | 11.1 µM (active) | > 30 µM (inactive) | 0.063 µM (active) | 0.099 µM (active) | > 30 µM (inactive) | > 30 µM (inactive) | C[C@@H](NC(=O)c1ncnc(N)c1Cl)c1ncc(C(=O)Nc2cc(C(F)(F)F)c(Cl)cn2)s1 [TOVORAFENIB] |
| > 30 µM (inactive) | > 30 µM (inactive) | > 30 µM (inactive) | 1.1 µM (active) | > 30 µM (inactive) | > 30 µM (inactive) | > 30 µM (inactive) | 0.071 µM (active) | > 30 µM (inactive) | > 30 µM (inactive) | > 30 µM (inactive) | > 30 µM (inactive) | > 30 µM (inactive) | > 30 µM (inactive) | C[C@@H](N)c1ccc(C(=O)Nc2ccnc3[nH]ccc23)cc1 [Y-39983] |
| > 30 µM (inactive) | > 30 µM (inactive) | 0.319 µM | 0.579 µM (active) | > 30 µM (inactive) | > 30 µM (inactive) | > 30 µM (inactive) | 1.3 µM | > 30 µM (inactive) | 0.023 µM | > 30 µM (inactive) | > 30 µM (inactive) | > 30 µM (inactive) | > 30 µM (inactive) | CN1C/C=C/CCOc2cccc(c2)-c2ccnc(n2)Nc2cccc(c2)C1 [ZOTIRACICLIB] |

| SMILES | Kd (Deoxycytidine kinase) | Kd [1] | Kd [2] | Kd [3] | Kd (TGF-beta receptor type-2) | Kd [4] | Kd (Aurora kinase A) | Kd [5] | Kd [6] | Kd [7] | Kd [8] | Kd [9] | Kd [10] | Kd [11] |
| --- | --- | --- | --- | --- | --- | --- | --- | --- | --- | --- | --- | --- | --- | --- |
| Cc1cc(Nc2ncnc3ccc(NC4=NC(C)(C)CO4)cc23)ccc1Oc1ccn2ncnc2c1 [TUCATINIB] | > 30 µM (inactive) | > 30 µM (inactive) | > 30 µM (inactive) | > 30 µM (inactive) | > 30 µM (inactive) | > 30 µM (inactive) | > 30 µM (inactive) | > 30 µM (inactive) | > 30 µM (inactive) | > 30 µM (inactive) | > 30 µM (inactive) | > 30 µM (inactive) | > 30 µM (inactive) | > 30 µM (inactive) |
